# Laboratory results from patent US11142515B2, “Pyrazolyl-ureas as kinase inhibitors” (RESPIVERT LIMITED, priority 2014, dated 2021).
# Columns and labels:
# GSK 3α enzyme isoform = biological target: T1, GSK 3α enzyme isoform (Homo sapiens, UniProt P49840); assay: GSK 3α enzyme inhibition (Z-LYTE FRET); type: biochemical; conditions: for IC50: Table 2A, read-out: IC50 Values for Enzyme Inhibition GSK3α
# T1 construct: purchased Life Technologies
# Procedure: (§1) The enzyme inhibitory activities of compounds disclosed herein were determined by FRET using synthetic peptides labelled with both donor and acceptor fluorophores (Z-LYTE, Life Technologies, Paisley, UK).
# The GSK3a protein (500 ng/mL, 2.5 μL) was incubated with the test compound (2.5 μL at either 40 μg/mL, 12 μg/mL, 4 μg/mL, 1.2 μg/mL, 0.4 μg/mL, 0.12 μg/mL, 0.04 μg/mL, 0.012 μg/mL, 0.004 μg/mL or 0.0012 μg/mL) for 2 h at RT. The FRET peptide (8 μM, 2.5 μL), which is a phosphorylation target for GSK3α, and ATP (40 μM, 2.5 μL) was then added to the enzyme/compound mixture and the resulting mixture incubated for 1 h at RT. Development reagent (protease, 5 μL) was added for 1 h prior to detection in a fluorescence microplate reader (EnVision, Perkin Elmer).
# (§2) In all cases, the site-specific protease cleaves non-phosphorylated peptide only and eliminates the FRET signal. Phosphorylation levels of each reaction were calculated using the ratio of coumarin emission (donor) over fluorescein emission (acceptor), for which low ratios indicate high phosphorylation and high ratios indicate low phosphorylation levels.
# Hck = biological target: T2, Hck (Homo sapiens, UniProt P08631); assay: Hck enzyme inhibition (Z-LYTE FRET); type: biochemical; conditions: Table 2A
# T2 construct: purchased Life Technologies
# T2 sequence (P08631 22-526): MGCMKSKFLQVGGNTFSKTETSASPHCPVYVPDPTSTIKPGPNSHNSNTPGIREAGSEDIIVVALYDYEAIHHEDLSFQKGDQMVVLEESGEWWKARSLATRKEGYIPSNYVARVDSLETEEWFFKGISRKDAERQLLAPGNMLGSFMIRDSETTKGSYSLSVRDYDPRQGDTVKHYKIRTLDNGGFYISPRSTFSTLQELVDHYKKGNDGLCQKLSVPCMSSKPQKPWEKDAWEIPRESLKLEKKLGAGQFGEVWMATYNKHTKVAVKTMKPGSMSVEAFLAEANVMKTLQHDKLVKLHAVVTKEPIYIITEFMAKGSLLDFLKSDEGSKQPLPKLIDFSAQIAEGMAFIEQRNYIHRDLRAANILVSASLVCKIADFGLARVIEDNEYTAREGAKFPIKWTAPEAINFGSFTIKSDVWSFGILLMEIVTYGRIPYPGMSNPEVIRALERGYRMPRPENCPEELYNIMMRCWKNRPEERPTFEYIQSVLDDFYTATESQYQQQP
# Procedure: as §1
# (§3) The relevant enzyme (1000 ng/mL, 1400 ng/mL or 2000 ng/mL respectively, 2.5 μL) was incubated with the test compound (either 40 μg/mL, 12 μg/mL, 4 μg/mL, 1.2 μg/mL, 0.4 μg/mL, 0.12 μg/mL, 0.04 μg/mL, 0.012 μg/mL, 0.004 μg/mL or 0.0012 μg/mL, 2.5 μL each) for 2 h at RT. The FRET peptides (8 μM, 2.5 μL), and appropriate ATP solutions (2.5 μL, 800 μM for c-Src, and 60 μM ATP for HCK and Syk) were then added to the enzyme/compound mixtures and incubated for 1 h at RT. Development reagent (protease, 5 μL) was added for 1 h prior to detection in a fluorescence microplate reader (EnVision, Perkin Elmer).
# as §2
# [1] = biological target: T3, p38 MAPKα isoform (MAPK14) (Homo sapiens, UniProt Q16539); assay: p38 MAPKα enzyme inhibition (Z-LYTE FRET); type: biochemical; conditions: Table 2A; read-out: IC50 Values for Enzyme Inhibition p38 MAPKα
# T3 construct: purchased Life Technologies
# T3 sequence (Q16539 whole entry, canonical isoform): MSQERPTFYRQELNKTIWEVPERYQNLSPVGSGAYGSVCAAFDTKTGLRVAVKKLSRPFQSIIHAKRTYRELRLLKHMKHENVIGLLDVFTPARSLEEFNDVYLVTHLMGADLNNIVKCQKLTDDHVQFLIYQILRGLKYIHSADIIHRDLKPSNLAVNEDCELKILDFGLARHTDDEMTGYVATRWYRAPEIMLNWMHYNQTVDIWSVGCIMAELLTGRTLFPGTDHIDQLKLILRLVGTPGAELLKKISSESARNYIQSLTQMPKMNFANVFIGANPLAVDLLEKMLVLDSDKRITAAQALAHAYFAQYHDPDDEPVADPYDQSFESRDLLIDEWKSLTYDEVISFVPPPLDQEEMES
# Procedure, shortened: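 Activity was measured indirectly as phosphorylation of a MAPKAP-K2-derived FRET peptide. Enzyme (added at 40 ng/mL) was preincubated 2 h at RT with compound (added solutions 40–0.0012 μg/mL).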
# [2] = system: IL-8 release in d-U937 cells; assay: LPS-induced IL-8 release in d-U937 cells; type: cell-based; conditions: Homo sapiens, dU937, LPS 0.1 μg/mL 4 h
# Procedure: U937 cells, a human monocytic cell line, were differentiated into macrophage-type cells by incubation with PMA (100-200 ng/mL) for 48 to 72 h. Cells were pre-incubated with final […] concentrations of test compound for 2 h and were then stimulated with LPS (0.1 μg/mL; from E. coli: O111:B4, Sigma) for 4 h. The supernatant was collected for determination of TNFα and IL-8 concentrations by sandwich ELISA (Duo-set, R&D systems). […] The relative 50% effective concentration (REC50) was determined from the resultant concentration-response curve. The inhibition of IL-8 production was calculated at each concentration of test compound by comparison with vehicle control.
# c-Src = biological target: T4, c-Src (Homo sapiens, UniProt P12931); assay: c-Src enzyme inhibition (Z-LYTE FRET); type: biochemical; conditions: Table 2A
# T4 construct: purchased Life Technologies
# T4 sequence (P12931 whole entry): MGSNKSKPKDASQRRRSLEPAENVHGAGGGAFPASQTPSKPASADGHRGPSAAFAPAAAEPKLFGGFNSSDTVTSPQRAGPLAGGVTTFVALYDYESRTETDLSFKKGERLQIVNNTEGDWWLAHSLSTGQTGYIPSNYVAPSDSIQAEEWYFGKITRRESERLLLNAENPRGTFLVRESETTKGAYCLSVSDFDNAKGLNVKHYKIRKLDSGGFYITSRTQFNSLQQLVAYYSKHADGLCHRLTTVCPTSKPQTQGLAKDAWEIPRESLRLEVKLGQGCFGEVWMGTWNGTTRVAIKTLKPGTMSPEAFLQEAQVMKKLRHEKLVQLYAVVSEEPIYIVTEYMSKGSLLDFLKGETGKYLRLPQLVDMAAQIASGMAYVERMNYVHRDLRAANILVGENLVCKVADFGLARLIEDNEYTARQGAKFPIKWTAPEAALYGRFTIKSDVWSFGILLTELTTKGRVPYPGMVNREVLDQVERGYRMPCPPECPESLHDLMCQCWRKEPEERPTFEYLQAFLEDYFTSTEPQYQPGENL
# Procedure: as §1, §3, §2
# [3] = system: ICAM-1 expression in BEAS2B cells; assay: Poly I:C-induced ICAM-1 expression in BEAS2B cells; type: cell-based; conditions: Homo sapiens, BEAS-2B, read-out: PolyIC/ICAM1 IC50 (BEAS2B)
# Procedure: Poly I:C was used in these studies as a simple, RNA virus mimic. Poly I:C-Oligofectamine mixture (2% Oligofectamine±1 μg/mL Poly I:C, 25 μL; Life Technologies and Invivogen Ltd., San Diego, Calif., respectively) was transfected into BEAS2B cells (human bronchial epithelial cells, ATCC). Cells were pre-incubated with final concentrations of test compounds for 2 h and the level of ICAM-1 expression on the cell surface was determined by cell-based ELISA. At a time point 18 h after poly I:C transfection, cells were fixed with 4% formaldehyde in PBS (100 μL) and then endogenous peroxidase was quenched by the addition of washing buffer (100 μL, 0.05% Tween in PBS: PBS-Tween) containing 0.1% sodium azide and 1% hydrogen peroxide. Cells were washed with wash-buffer (3×200 μL). After blocking the wells with 5% milk in PBS-Tween (100 μL) for 1 h, the cells were incubated with anti-human ICAM-1 antibody (50 μL; Cell Signaling Technology, Danvers, Mass.) in 1% BSA PBS overnight at 4° C.
# The cells were washed with PBS-Tween (3×200 μL) and incubated with the secondary antibody (100 μL; HRP-conjugated anti-rabbit IgG, Dako Ltd., Glostrup, Denmark). The cells were then incubated with of substrate (50 μL) for 2-20 min, followed by the addition of stop solution (50 μL, 1N H2SO4). The ICAM-1 signal was detected by reading the absorbance at 450 nm against a reference wavelength of 655 nm using a spectrophotometer. The cells ware then washed with PBS-Tween (3×200 μL) and total cell numbers in each well were determined by reading absorbance at 595 nm after Crystal Violet staining (50 μL of a 2% solution in PBS) and elution by 1% SDS solution (100 μL) in PBS. The measured OD 450-655 readings were corrected for cell number by dividing with the OD595 reading in each well. The inhibition of ICAM-1 expression was calculated at each concentration of test compound by comparison with vehicle control.
# T1 sequence (P49840 whole entry, canonical isoform): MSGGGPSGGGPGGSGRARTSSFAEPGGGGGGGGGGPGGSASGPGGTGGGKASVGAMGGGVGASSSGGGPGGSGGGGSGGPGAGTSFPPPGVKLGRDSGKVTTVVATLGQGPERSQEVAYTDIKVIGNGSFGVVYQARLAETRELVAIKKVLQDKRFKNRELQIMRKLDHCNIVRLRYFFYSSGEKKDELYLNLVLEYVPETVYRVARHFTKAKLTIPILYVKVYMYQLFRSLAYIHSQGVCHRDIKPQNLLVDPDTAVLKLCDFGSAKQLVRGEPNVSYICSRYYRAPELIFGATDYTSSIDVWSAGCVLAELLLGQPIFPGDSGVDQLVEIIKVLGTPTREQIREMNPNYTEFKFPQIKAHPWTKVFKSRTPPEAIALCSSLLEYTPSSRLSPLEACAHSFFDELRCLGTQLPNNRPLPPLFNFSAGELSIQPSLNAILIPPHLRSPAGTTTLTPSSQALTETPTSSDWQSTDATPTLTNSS
SMILES,IC50 (GSK 3α enzyme isoform) [nM],IC50 (Hck) [nM],IC50 [1] [nM],IC50 [2] [nM],IC50 (c-Src) [nM],IC50 [3] [nM],inhibitory activity against GSK3a (in words) (GSK 3α enzyme isoform)
Cc1cccc(-n2nc(C(C)(C)C)cc2NC(=O)Nc2ccc(OCc3ccnc(Nc4cnccn4)c3)c3ccccc23)c1 [Example 40],8780,23,11,11.7,85,637,–
Cc1ccc(-n2nc(C(C)(C)C)cc2NC(=O)Nc2ccc(OCc3ccnc(Nc4cncc(N(C)C)n4)c3)c3ccccc23)cc1 [Example 14],3370,6,12,5.5,29,64.3,–
Cc1ccc(-n2nc(C(C)(C)C)cc2NC(=O)Nc2ccc(OCc3ccnc(Nc4cnc(C5CC5)cn4)c3)c3ccccc23)cc1 [Example 16],> 15700,355,87,89.6,2520,> 1560,–
"Cc1ccc(-n2nc(C(C)(C)C)cc2NC(=O)Nc2ccc(OCc3ccnc(Nc4cncc(CC(=O)N(C)C)n4)c3)c3ccccc23)cc1 [Example 8, 2-(6-((4-(((4-(3-(3-(tert-butyl)-1-(p-tolyl)-1H-pyrazol-5-yl)ureido)naphthalen-1-yl)oxy)methyl)pyridin-2-yl)amino)pyrazin-2-yl)-N,N-dimethylacetamide]",138,10,1,10.3,32,31.5,–
Cc1ccc(-n2nc(C(C)(C)C)cc2NC(=O)Nc2ccc(OCc3ccnc(Nc4cnc(CC(N)=O)cn4)c3)c3ccccc23)cc1 [Example 30],1490,6,2,6.9,19,115,–
"Cc1ccc(-n2nc(C(C)(C)C)cc2NC(=O)Nc2ccc(OCc3ccnc(Nc4cnccn4)c3)c3ccccc23)cc1 [Example 1, 1-(3-(tert-Butyl)-1-(p-tolyl)-1H-pyrazol-5-yl)-3-(4-((2-(pyrazin-2-ylamino)pyridin-4-yl)methoxy)naphthalen-1-yl)urea]",> 16700,29,25,13,98,81.8,very much weaker than the Reference Compound
CCc1ccc(-n2nc(C(C)(C)C)cc2NC(=O)Nc2ccc(OCc3ccnc(Nc4cnccn4)c3)c3ccccc23)cc1 [Example 42],6940,89,15,18.3,543,197,–
Cc1ccc(-n2nc(C(C)(C)C)cc2NC(=O)Nc2ccc(OCc3ccnc(Nc4cncc(C5CCCC5)n4)c3)c3ccccc23)cc1 [Example 48],4210,133,91,16.7,459,92.5,–
CC(C)(C)c1cc(NC(=O)Nc2ccc(OCc3ccnc(Nc4cnccn4)c3)c3ccccc23)n(-c2cccc(F)c2)n1 [Example 49],4480,115,11,24.3,556,474,–
